From patent publication US20100098671A1, “COMPOSITION FOR PREVENTION OR TREATMENT OF BONE MARROW DAMAGE” (MODERN CELL & TISSUE TECHNOLOGIES INC., priority 2007, published 2010)
No end group written: not given here.

What was measured:
Format in all cases: in vivo, C57b1/6 mice
bone marrow cells = test: Viable bone marrow cell count in gamma-irradiated mice
Text: (§1) In order to ascertain protective and regenerative effects of Substance-P on bone marrow, 8-week-old C57b1/6 mice were purchased as experimental animals and divided into three groups, each consisting of 6 animals (n=6): two experimental groups (administration of a test drug before and after induction of bone marrow damage) and a control group. For this purpose, bone marrow damage was induced by radiation in animals.
(§2) For the group used to confirm bone marrow-protective effects of Substance-P, 0.1 nmol/g of Substance-P was injected into caudal vein of mice, 1 day prior to radiation. 24 hours later, animals were irradiated with a gamma irradiator at a dose of 4 Gy. 4 hours after irradiation, 0.1 nmol/g of Substance-P diluted in PBS was injected once more into caudal vein of mice. Substance-P was diluted in PBS prior to use thereof.
(§3) For the group used to confirm bone marrow-regenerative effects of Substance-P, 0.1 nmol/g of Substance-P was intravenously administered to caudal veins of mice immediately after animals were irradiated with gamma rays. 24 hours later, Substance-P was intravenously administered once more to animals.
(§4) Bone marrow cells were isolated from animals 3 and 7 days after irradiation. For this purpose, femurs were isolated from mice and defatted to obtain the femoral bones only. A medium was allowed to flow from one end of the bone to the other end thereof using a 26-gauge syringe. This procedure was repeated five times to ensure that bone marrow cells were completely extracted from the bone. The cells were pooled in a tube, and centrifuged at 1500 rpm for 5 min and washed two times with PBS. The viable cell count was performed and compared between the drug-administered groups (administration of Substance-P before and after irradiation) and the non-administered group.

blood cells = test: Viable blood cell count in gamma-irradiated mice; details: Substance-P administered before or after radiation-induced bone marrow damage
Text: as §1, §2, §3
Blood cells were isolated from animals 3 and 7 days after irradiation treatment was complete. For this purpose, whole blood (WB) was isolated from abdominal vena cava using a 26-gauge syringe. […]

[1] = system: hematopoietic stem cell colony formation of bone marrow cells; test: CFU assay of bone marrow cells from irradiated mice in HSC-CFU media
Text: as §1, §2, §3, §4
When bone marrow cells and blood cells were prepared, the cells were inoculated onto 35 mm plates at a density of 3×10^3 bone marrow cells/plate and 5×10^6 blood cells/plate, respectively and cultured in hematopoietic stem cell-colony forming unit media (HSC-CFU media, available from Miltenyi). The cells were cultured without change of the culture medium for two weeks while a colony count was performed daily.

Q: How did the “viable bone marrow cell count vs non-administered group” value (bone marrow cells; Substance-P 0.1 nmol/g i.v. 1 day prior to and 4 h after 4 Gy irradiation, 3rd post-irradiation day) turn out when “Substance P (RPKPQQFFGLM; not fully specified; ends and bridges not checked; UniProt P20366 58-68, looked up) [Substance-P]” was run?
A: Its value is “no significant difference”.

Q: And the “viable bone marrow cell count vs non-administered group” value (bone marrow cells; Substance-P 0.1 nmol/g i.v. 1 day prior to and 4 h after 4 Gy irradiation, after 7 days)?
A: The value was “about two-fold higher”.

Q: And the “viable bone marrow cell count vs non-administered group” value (bone marrow cells; Substance-P 0.1 nmol/g i.v. immediately after irradiation and 24 h later, 3rd post-irradiation day)?
A: Its value is “no significant difference”.

Q: And the “viable bone marrow cell count vs non-administered group” value (bone marrow cells; Substance-P 0.1 nmol/g i.v. immediately after irradiation and 24 h later, after 7 days)?
A: The value was “about 2.5 fold”.

Q: And the “number of blood cells vs non-administered group” value (blood cells)?
A: The value was “significantly higher”.

Q: And the “day from which colony formation was observable” value ([1]; Substance-P after irradiation)?
A: The value was 5 post-irradiation day.

Q: And the “colony count vs non-administered group” value ([1]; Substance-P after irradiation, 2-week culture, 14th post-irradiation day)?
A: The value was “about 3 fold”.

Q: And the colony formation ([1]; Substance-P after irradiation, 3rd post-irradiation day)?
A: Its colony formation is “no colony formation”.

Q: What about the colony count ([1]; Substance-P after irradiation, 7th post-irradiation day) of the same substance?
A: Its colony count is “significantly increased”.

Q: And the “colony count vs non-administered group” value ([1]; Substance-P prior to irradiation, 2-week culture, 14th post-irradiation day)?
A: Its value is “about 9 fold”.

Q: What about the “colony count vs non-administered group” value ([1]; Substance-P prior to irradiation, 3rd post-irradiation day) of the same substance?
A: Its value is “higher colony counts”.

Q: What about the “colony count vs non-administered group” value ([1]; Substance-P prior to irradiation, 7th post-irradiation day) of the same substance?
A: The value was “higher colony counts”.

Q: What about the “colony count vs non-administered group” value ([1]; Substance-P prior to irradiation, immediately after irradiation) of the same substance?
A: Its value is “higher colony counts”.
